According to US20170184612A1, “USE OF LEUKOCYTES AND NOVEL BIOMARKERS IN THE DIAGNOSIS, CONFIRMATION, AND TREATMENT OF A NEUROLOGICAL DISORDER” (The Trustees of Columbia University in the City of New York, priority 2014, published 2017):

What was measured:
Format in all cases: cell-based, human
[1] = system: peripheral blood mononuclear cells (PBMC), T cells; assay: ELISpot assay, gamma-interferon release (SFC) after stimulation with a-synuclein epitope pools; details: for IFNg Peptide + (donors positive to the peptide): of donors tested (peptide); for IFNg Peptide +: number of donors positive to the single peptide
In short: (§1)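 Ficoll-isolated PBMC, PD vs age-matched controls, blinded; peptide pools (122 candidates + pS129 epitopes), 22 h, 37 C. Positive pools deconvoluted.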

[2] = system: peripheral blood mononuclear cells (PBMC), T cells; assay: ELISpot assay, IL-5 release (SFC) after stimulation with a-synuclein epitope pools; details: for IL-g Peptide + (donors positive to the peptide): of donors tested (peptide); for IL-g Peptide +: number of donors positive to the single peptide
In short: as §1

[3] = system: peripheral blood mononuclear cells (PBMC), T cells; assay: ELISpot assay, IFNg and IL-5 reactivity combined, T cell response to α-syn epitopes; details: flag 1/0 per peptide
Method: Blood from age matched controls and PD patients were obtained and mononuclear cells were isolated by gradient centrifugation.
Release of the cytokines gamma-interferon, which measures activation of CD4+ and/or CD8+ T cells, and the interleukin, IL-5, which measures activation of CD4+ T cells was measured by ELISpot assay. […] After 22 hours of stimulation at 37 C, the cells were removed and release of cytokines was measured by colorimetric detection of spot-forming cells (SFC). Confirmed release of cytokine is determined by the presence of a minimum of 20 SFC per million cells.
The binding algorithms in SubAim 1 predict how well the peptides would bind to MHC if present, but not if they are present in patients. To determine this, the presence of T cell response against the candidate antigens by patient blood-derived peripheral blood mononuclear cells (PBMC) is assessed by ELISPOT assays upon stimulation with the peptides. This assay detects and quantifies cytokine release (in this case, IFNγ and IL-5) from specific activated T cells.
Data were obtained from blood samples (25 ml) from 44 PD patients and 24 age-matched controls. The experiments were conducted blindly. PBMCs from these samples were isolated and exposed to pools comprising the 122 candidate class I and class II antigens and phosphorylated S129 epitopes generated in Subaim 1. For the PBMCs responsive to the pooled peptides, the response was then deconvoluted to identify individual epitopes.
PMBC fractions are recovered by standard methods with Ficoll gradient and T cells expansion (Oseroff et al., 2010). The methods for the analysis of T cell reactions and measurement of cytokines production using the enzyme-linked immunosorbent spot (ELISPOT) assay are published in analogous experiments to discover antigens in multiple sclerosis (Lolli et al., 2013) and in hay fever allergens (Oseroff et al., 2010). T cell responses are determined by measuring IFNγ and IL-5 release by ELISPOT. Statistical analysis of differences between populations is expected to be non-parametric and analyzed with the U-Mann-Whitney test. If there were a normal distribution of response, which is a priori unlikely as some patients have no T cell response, with an SD=1, 8 patients per group would be required to provide a p>90% that the study detect a >2 fold difference at a two-sided 0.05 significance level.

[4] = Normals Summary, single peptide
[5] = Patients Summary, PD patients, single peptide
[6] = second 'Pool Stimulated' section (from r296), 12 donors tested
[7] = peptide + / donors tested (peptide), second 'Pool Stimulated' section (from r296), 12 donors tested
[8] = single peptide, second 'Pool Stimulated' section (from r296), 12 donors tested

| Substance | IFNg Peptide + (donors positive to the peptide) ([1]; Normals Summary) | IFNg Avg SFC [1, 4] | IFNg Response Frequency [1, 4] | IFNg Total SFC [1, 4] | IFNg Peptide + (donors positive to the peptide) ([1]; Patients Summary, PD patients) | IFNg Response Frequency [1, 5] | IFNg Total SFC [1, 5] | IL-g Peptide + (donors positive to the peptide) ([2]; Normals Summary) | IL-g Response Frequency [2, 4] | IL-g Total SFC [2, 4] | IL-g Peptide + (donors positive to the peptide) ([2]; Patients Summary, PD patients) | IL-g Response Frequency [2, 5] | IL-g Total SFC [2, 5] | Peptides + in Patients & Normals [3] | IFNg Peptide + [1, 6] | IFNg Response Frequency [1, 7] | IFNg Total SFC [1, 8] | IL-g Peptide + [2, 6] | IL-g Response Frequency [2, 7] | IL-g Total SFC [2, 8] | further results |
| --- | --- | --- | --- | --- | --- | --- | --- | --- | --- | --- | --- | --- | --- | --- | --- | --- | --- | --- | --- | --- | --- |
| 3521.001 (VFMKGLSKA; listed as Homo sapiens) | 1 | 220 SFC | 100% | 220 SFC | 1 | 33% | 75 SFC | 1 | 100% | 193 SFC | 1 | 33% | 634 SFC | 1 |  |  |  |  |  |  | IFNg Avg SFC [1, 5]: 75 SFC; IL-g Avg SFC [2, 4]: 193 SFC; IL-g Avg SFC [2, 5]: 634 SFC |
| 3521.0004 (KTKEGVLYV; listed as Homo sapiens) |  |  |  |  | 0 | 0% | 0 SFC |  |  |  | 0 | 0% | 0 SFC | 0 | 0 | 0% | 0 SFC | 0 | 0% | 0 SFC |  |
| 3521.007 (GVVAAAEKTK; listed as Homo sapiens) |  |  |  |  | 2 | 67% | 225 SFC |  |  |  | 1 | 33% | 23 SFC | 0 | 0 | 0% | 0 SFC | 0 | 0% | 0 SFC | IFNg Avg SFC [1, 5]: 113 SFC; IL-g Avg SFC [2, 5]: 23 SFC |
| 3521.008 (VAAAEKTKQGVAEAA; listed as Homo sapiens) |  |  |  |  | 1 | 33% | 150 SFC |  |  |  | 0 | 0% | 0 SFC | 0 | 0 | 0% | 0 SFC | 0 | 0% | 0 SFC | IFNg Avg SFC [1, 5]: 150 SFC |
| 3521.0012 (KTKQGVAEA; listed as Homo sapiens) | 0 |  | 0% | 0 SFC | 0 | 0% | 0 SFC | 0 | 0% | 0 SFC | 0 | 0% | 0 SFC | 0 |  |  |  |  |  |  |  |
| 3521.0016 (DVFMKGLSK; listed as Homo sapiens) | 1 | 673 SFC | 100% | 673 SFC | 0 | 0% | 0 SFC | 1 | 100% | 780 SFC | 0 | 0% | 0 SFC | 0 |  |  |  |  |  |  | IL-g Avg SFC [2, 4]: 180 SFC |
| 3521.0017 (FMKGLSKAK; listed as Homo sapiens) | 1 | 46.7 SFC | 100% | 46.7 SFC | 0 | 0% | 0 SFC | 0 | 0% | 0 SFC | 0 | 0% | 0 SFC | 0 |  |  |  |  |  |  |  |
| 3521.0043 (VFMKGLSKAK; listed as Homo sapiens) |  |  |  |  | 0 | 0% | 0 SFC |  |  |  | 1 | 33% | 191 SFC | 1 | 1 | 100% | 66.7 SFC | 1 | 100% | 93.3 SFC | IFNg Avg SFC [1, 8]: 66.7 SFC; IL-g Avg SFC [2, 5]: 191 SFC; IL-g Avg SFC [2, 8]: 93.3 SFC |
| 3521.0046 (FMKGLSKAKE; listed as Homo sapiens) |  |  |  |  | 0 | 0% | 0 SFC |  |  |  | 0 | 0% | 0 SFC | 0 | 0 | 0% | 0 SFC | 0 | 0% | 0 SFC |  |
| 3521.0052 (KTKQGVAEAA; listed as Homo sapiens) |  |  |  |  | 0 | 0% | 0 SFC |  |  |  | 0 | 0% | 0 SFC | 0 | 0 | 0% | 0 SFC | 0 | 0% | 0 SFC |  |
